Active and inactive are the calls of the source. How the calls were made is not given here. Some results are limits rather than exact numbers.

Chain of Muscarinic acetylcholine receptor M4 (Rattus norvegicus) (P08485 whole entry, looked up): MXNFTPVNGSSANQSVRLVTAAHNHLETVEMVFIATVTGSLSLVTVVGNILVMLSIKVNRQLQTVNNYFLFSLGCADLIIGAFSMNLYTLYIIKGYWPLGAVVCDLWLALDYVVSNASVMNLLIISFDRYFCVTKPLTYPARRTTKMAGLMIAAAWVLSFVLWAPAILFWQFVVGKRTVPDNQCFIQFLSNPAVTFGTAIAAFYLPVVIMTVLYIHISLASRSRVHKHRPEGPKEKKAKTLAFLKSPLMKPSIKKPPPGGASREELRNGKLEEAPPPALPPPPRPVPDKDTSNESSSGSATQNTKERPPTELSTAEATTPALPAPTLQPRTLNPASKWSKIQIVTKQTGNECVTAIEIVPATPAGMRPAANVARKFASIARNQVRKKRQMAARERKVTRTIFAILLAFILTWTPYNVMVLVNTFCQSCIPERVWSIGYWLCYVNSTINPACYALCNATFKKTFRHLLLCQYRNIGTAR

This assay has as its target Muscarinic acetylcholine receptor M4 (Rattus norvegicus) (UniProt P08485). The experiment in a line: acetylcholine potency shift at rat M4, rM4 cells, calcium, ACh concentration-response fold shift (AID 449767). The settings on record: acetylcholine CRC fold-shift, at 30 µM, hits give high values.
With `Cc1cc(OCc2ccccn2)nc2sc(C(=O)NCc3cccc(F)c3F)c(N)c12`, the fold shift is 28.

With `Cc1cc(C)c2c(N)c(C(=O)NCc3ccc4c(c3)OCO4)sc2n1`, the fold shift is 40. Consider `COc1ccc(CNC(=O)c2sc3nc(OCc4ccccn4)cc(C)c3c2N)cc1`, for which the fold shift is 4. As for `Cc1cc(OCc2ccncc2)nc2sc(C(=O)NCc3cccc(F)c3F)c(N)c12`, the fold shift is 36. `COCCCNC(=O)c1sc2nc(OCCN3CCOCC3)cc(C)c2c1N`: the fold shift was 67. For the molecule `Cc1cc(C)c2c(N)c(C(=O)NCc3ccccc3)sc2n1`, the fold shift was 26. With `Cc1cc(OCCCN(C)C)nc2sc(C(=O)NCc3cc(F)ccc3F)c(N)c12`, the fold shift is 14. On to `Cc1cc(C)c2c(N)c(C(=O)NCc3cccc(F)c3F)sc2n1`, for which the fold shift is 18. `Cc1cc(OCCN2CCOCC2)nc2sc(C(=O)NC(C)(C)C)c(N)c12`: the fold shift was 62. As to `COc1ccc(CNC(=O)c2sc3nc(OCc4cccnc4)cc(C)c3c2N)cc1`, the fold shift is 9. Consider `Cc1cc(OCc2ccncc2)nc2sc(C(=O)NCc3cc(F)ccc3F)c(N)c12`, for which the fold shift was 64. Turning to `COc1ccc(CNC(=O)c2sc3nc(OCc4ccncc4)cc(C)c3c2N)cc1`, the fold shift is 50.

For the molecule `Cc1cc(OCCCN(C)C)nc2sc(C(=O)NC3COC3)c(N)c12`, the fold shift is 7. For the molecule `Cc1cc(C)c2c(N)c(C(=O)NCc3ccccc3F)sc2n1`, the fold shift was 16. Take `Cc1cc(OCCN2CCOCC2)nc2sc(C(=O)NC3COC3)c(N)c12`: the fold shift is 40. On to `COc1ccc(CNC(=O)c2sc3nc(OCCCN(C)C)cc(C)c3c2N)cc1`, for which the fold shift was < 1 (inactive).

`Cc1cc(OCc2ccccn2)nc2sc(C(=O)NCc3cc(F)ccc3F)c(N)c12`: the fold shift is 41.

`Cc1cc(OCCN2CCOCC2)nc2sc(C(=O)Nc3ccccc3)c(N)c12`: the fold shift was 51.

Take `COc1ccc(CNC(=O)c2sc3nc(OCCN4CCCC4)cc(C)c3c2N)cc1`: the fold shift was 25. Consider `COc1ccc(CNC(=O)c2sc3nc(C)cc(C)c3c2N)cc1`, for which the fold shift was 42.

`Cc1cc(C)c2c(N)c(C(=O)NCc3ccc(Cl)cc3)sc2n1`: the fold shift is 48.

Regarding `Cc1cc(OCCN2CCOCC2)nc2sc(C(=O)NC(C)C)c(N)c12`, the fold shift was 36. As to `COc1ccc(CNC(=O)c2sc3nc(OCCN4CCOCC4)cc(C)c3c2N)cc1`, the fold shift is 37.

Values taken from PubChem BioAssay AID449767 (Vanderbilt High Throughput Screening Facility, 2010).
